Experimental findings from PubChem BioAssay (NCI) are described below.

Where “and” joins values, the source holds several entries; their conditions need not be identical. Identical values can stand only once.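 Where inhibition never reached the appropriate level, the endpoint shown equals the highest concentration tested. Otherwise, values were interpolated linearly from a five-concentration, 48-hour dose response in 96-well plates. Here, GI50 denotes the concentration required for 50% inhibition of growth. At the TGI there is no net growth.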

What all share (test): inhibition of tumour cell growth, NCI panel, 48 h
Assay [1] has as its system A549 NSCLC.
Assay [2] deals with ACHN renal.
In assay [3] the test system is CCRF-CEM leukemia.
In assay [4] the test system is HOP-92 NSCLC.
Assay [5] relates to K-562 leukemia.
Assay [6] has as its system KM12 colon.
Assay [7] relates to NCI-H522 lung.
In assay [8] the test system is SF-539 CNS.
Assay [9] concerns SK-MEL-5 melanoma.
Assay [10] has as its system SN12C renal.

Take `CC1/C(=N/O)CC(c2ccccc2)N(N=O)C1c1ccccc1` (stereo unspecified): the TGI in assay [1], in [2], in [3], in assay [4], in assay [5] and in assay [6] was over 100 µM throughout. Moreover, the TGI in [7], in assay [8], in assay [9] and in assay [10] was over 100 µM throughout.
In the case of `O=C1/C(=C/c2ccc(O)cc2)Oc2ccccc21`, the TGI in assay [1], in [2], in assay [3], in assay [4], in assay [5] and in assay [6] was over 100 µM throughout. Besides, the TGI was 62 µM in assay [7], over 100 µM in assay [8], over 100 µM in [9] and over 100 µM in [10].
For `CCCC(=O)OC(OC(=O)CCC)c1ccc([N+](=O)[O-])o1`, the TGI in assay [1] was over 100 µM; in [2], 49.9 µM; in assay [3], over 100 µM; in assay [4], 56.3 µM; in assay [5], over 100 µM; in assay [6], over 100 µM. Moreover, the TGI in assay [7] was 28.9 µM; in [8], over 100 µM; in assay [9] it was over 100 µM; in assay [10], 31.3 µM.
For the molecule `CCCCOP1(=O)CC(C)=C(Cl)C(C)(OC)C1` (stereo unspecified), the TGI was over 100 µM in assay [1]; over 100 µM in assay [2]; 98.7 µM in assay [3]; over 100 µM in assay [4]; over 100 µM in assay [5]; over 100 µM in assay [6]. In addition, the TGI in [7], in [8], in assay [9] and in assay [10] was over 100 µM each time.
For `CS(=O)(=O)CCNCc1ccoc1-c1ccc2ncnc(Nc3ccc(OCc4ccccc4)cc3)c2c1`, the GI50 is over 25 µM in assay [1]; over 25 µM in assay [2]; 17.7 µM in assay [3]; 1.98 µM in assay [4]; 14.4 µM in [5]; over 25 µM in assay [6]. Also, the GI50 in [7] was over 25 µM; in assay [8], over 25 µM; in assay [9], 9.74 µM; in assay [10], over 25 µM. The TGI in [1], in [2], in assay [3], in assay [4], in assay [5] and in assay [6] was over 25 µM throughout. In addition, the TGI in [7], in [8], in assay [9] and in assay [10] was over 25 µM throughout.
With `CC1=C(SCCC(=O)OC(C[Se]C2=C(C)C(=O)c3ccccc3C2=O)C(=O)NC(C)(C)C)C(=O)c2ccccc2C1=O` (stereo unspecified), the GI50 in assay [1] was 1.11 µM; in assay [2] it was 1.56 µM; in assay [3] it was 0.306 µM; in assay [4] it was 0.793 µM; in assay [5] it was 0.774 µM; in [6], 0.86 µM. In addition, the GI50 in assay [7] was 1.57 µM; in [8] it was 1.44 µM; in [9], 1.52 µM; in [10], 1.47 µM. The TGI in [1] was 4.59 µM; in [2], 2.9 µM; in assay [3], 1.2 µM; in assay [4] it was 2.13 µM; in [5] it was 2.59 µM; in assay [6] it was 2.18 µM. Also, the TGI in assay [7] worked out at 3.4 µM; in assay [8] it was 2.75 µM; in assay [9], 2.86 µM; in assay [10], 2.99 µM.
Consider `Cc1cc2nc(-c3ccc(O)c(O)c3)n(Cc3ccc(O)c(O)c3)c2cc1C`, for which the GI50 was 40.2 µM in [1]; 15.3 µM in assay [2]; 4.23 µM in assay [3]; 9.7 µM in [4]; 7.43 µM in [5]; 23.5 µM in [6]. For the same molecule, the GI50 was 6.71 µM in [7], 19.7 µM in [8], 17.5 µM in [9] and 18.5 µM in [10]. The TGI in [1] was over 100 µM; in assay [2] it was 59.6 µM; in assay [3], 25.5 µM; in [4], 55 µM; in [5], over 100 µM; in assay [6] it was over 100 µM. The TGI was 23.9 µM in assay [7], over 100 µM in assay [8], 39.9 µM in [9] and 44.8 µM in assay [10].
As for `Cn1cc(-c2csc(-c3cn(C(=O)OC(C)(C)C)c4ccccc34)n2)c2cccnc21`, the GI50 was 6.04 µM in assay [1]; 7.33 µM in assay [2]; 3.89 µM in assay [3]; 3.81 µM in assay [4]; 2.02 µM in assay [5]; 2.78 µM in assay [6]. For the same molecule, the GI50 in [7] was 3.84 µM; in assay [8] it was 3.51 µM; in assay [9] it was 2.56 µM; in [10], 6.45 µM. For the same molecule, the TGI was 31.2 µM in assay [1]; 20.4 µM in assay [2]; 67.6 µM in assay [3]; 19.9 µM in assay [4]; over 100 µM in [5]; 9.57 µM in assay [6]. The TGI in assay [7] was 25.4 µM; in assay [8], 17.4 µM; in assay [9] it was 13.2 µM; in assay [10], 21.6 µM.
As for `COC(=O)Nc1nc2ccc(C(=O)c3cccs3)cc2[nH]1`, the GI50 in assay [1] is 0.239 µM; in [2], 1.24 µM; in assay [3] it was 0.124 µM; in assay [4], over 100 µM; in assay [6], 0.0541 µM; in assay [7], 0.0139 µM and 0.107 µM. The GI50 in assay [8] is 0.0259 µM and 0.21 µM; in assay [9], 0.0215 µM and 0.0666 µM; in assay [10], 0.729 µM. Besides, the TGI in assay [1] is 55.8 µM and > 100 µM; in [2], 87.5 µM and > 100 µM; in assay [3] it was 19.8 µM and > 100 µM; in assay [5], 42.5 µM; in assay [6], 41 µM and > 100 µM; in assay [7] it was 0.0606 µM. In addition, the TGI in [9] was 6.43 µM and 2.06 µM; in assay [10], 32.9 µM and > 100 µM.
In the case of `NC1=C(O)C(=O)C(c2c[nH]c3ccc(OCc4ccccc4)cc23)O1` (stereo unspecified), the TGI in [1], in [2], in [3], in assay [4], in assay [5] and in assay [6] was over 100 µM each time. In addition, the TGI in [7], in [8], in assay [9] and in assay [10] was over 100 µM each time. Besides, in assay [3], the GI50 was over 100 µM.
In the case of `O=C(/C=C/c1ccc(Cl)cc1Cl)c1ccc(Cl)cc1Cl`, the GI50 in [1] was 19.9 µM; in assay [2], 22.1 µM; in assay [3] it was 9.14 µM; in assay [4], 50.8 µM; in assay [5] it was 10.4 µM; in assay [6], 13.5 µM. The GI50 in assay [8] was 20.7 µM; in [9] it was 16.7 µM. Further, the TGI in assay [1] was 47.2 µM; in assay [2] it was 47.9 µM; in assay [3], 32.8 µM; in assay [4], over 76.1 µM; in [5], 31.4 µM; in [6], 30.4 µM. Further, the TGI in [7] is 1.16 µM; in assay [8] it was over 54.9 µM; in assay [9], 36.4 µM; in assay [10] it was 24.8 µM.
`COc1ccc(/C=C/C(=O)c2ccc(Nc3nc(Nc4ccc(F)cc4)nc(Nc4ccc(F)cc4)n3)cc2)cc1`: the GI50 in assay [1] was 10.1 µM; in assay [2], 30.4 µM; in assay [3] it was 5.15 µM; in assay [4], 8.8 µM; in assay [5] it was 4.07 µM; in assay [6] it was 7.62 µM. Further, the GI50 in [7] is 8.89 µM; in assay [8], 23.2 µM; in assay [9], 3.51 µM; in [10], 55.1 µM. The TGI in [1] was 34 µM; in assay [2], over 100 µM; in [3], 48.2 µM; in [4] it was 31.4 µM; in assay [5], over 100 µM; in assay [6], 29.3 µM. For the same molecule, the TGI in [7] is 24.9 µM; in assay [8], 60.1 µM; in [9], 18.5 µM; in [10] it was over 100 µM.
In the case of `CCN(CC)CCNc1ccc([N+](=O)[O-])c2nc3ccc(OC)cc3c(N)c12`, the TGI in assay [1] was determined as 2.79 µM; in [2], 2.89 µM; in assay [3] it was 1.31 µM; in assay [4], 3.19 µM; in assay [5], 0.665 µM; in [6] it was 2.57 µM. Further, the TGI in assay [7] came to 0.551 µM; in assay [8], 3.27 µM; in [9], 2.22 µM; in assay [10] it was 2.83 µM.
For the molecule `CNC(=O)c1cc(-c2ccc(F)cc2)cc(-c2ccc(S(=O)(=O)N3CCCC3)cc2)c1N`, the GI50 in [1] was 11.9 µM; in assay [2] it was 21.5 µM; in [3] it was over 20.7 µM; in assay [4], 4.9 µM; in [5] it was 20.4 µM; in assay [6] it was 16.6 µM. Also, the GI50 was 22.3 µM in [7], over 25 µM in [8], 12.9 µM in [9] and over 23.8 µM in assay [10]. Moreover, the TGI in assay [1], in [2], in assay [3], in [4], in assay [5] and in assay [6] was over 25 µM each time. The TGI in assay [7], in [8], in assay [9] and in assay [10] was over 25 µM each time.
As to `N#CC(C#N)C(c1ccccc1)c1ccccc1`, the TGI in [1], in assay [2], in assay [3], in assay [4], in assay [5] and in assay [6] was over 100 µM in each case. For the same molecule, the TGI in assay [7], in [8], in assay [9] and in [10] was over 100 µM in each case.
